Test results from patent EP2161278B1, “Single-chain coiled coil scaffold” (Complix N.V., priority 2008, dated 2010).
Peptide text beside a SMILES is read from it.

assay: Thermal denaturation of trimeric coiled coil peptides by CD thermal scan (signal at 222 nm versus temperature, curve fitting); type: physicochemical; conditions: core mutants at positions 3a and 3d of the reference peptide with glutamine at 2a; Figure 9
Experimental: The said synthesized peptide was dissolved at a concentration of 292 microM in 20 mM phosphate buffer (PBS), 150 mM NaCl, pH 7.2. The CD spectra were measured between […], at 5 and 90 degrees Celsius (Figure 3). The spectrum at 5 degrees Celsius was indicative of a high alpha-helical secondary structure content, in agreement with the expectation that all heptad regions, but not all of the flanking residues, would assemble as alpha-helical coiled coils.
To analyse whether the temperature-induced transition between helical and nonhelical states was reversible, a forward (up) and backward (down) thermal scan was performed on the same sample, by recording the CD signal at […] as a function of temperature at a scanning rate of about 1 degree Celsius per minute (Figure 4). It was observed that the up and down scans almost perfectly coincided, thereby confirming the quantitative unfolding and refolding of the peptides in the sample.
It was further analyzed whether the thermal unfolding curve of Figure 4 conformed to the thermodynamic equations describing the equilibrium folding/unfolding reaction between three molecules free (monomeric) peptide and one entity of folded (trimeric) complex. This reaction is generally written as 3 peptide <=> peptide3 wherein "<=>" refers to a chemical equilibrium, "peptide" to a monomeric peptide in solution and "peptide3" to a trimeric entity in the folded (assembled, associated) state. This thermal unfolding curve was fitted to the theoretic equations: θ(T) = θM (T) + (θT(T)-θM(T))(1+root(F(-(1)/(2)+sqrt((1)/(4) + (F)/(27))), 3)+root(F(-(1)/(2)-sqrt((1)/(4) + (F)/(27))), 3)) [formula] wherein F = (exp(-(ΔHt)/(RT)(1-T/T1)-(ΔCp)/(RT)(T-Tt-Tln(T/Tt))))/(4) [formula] and T≡ the temperature, in degrees Kelvin, of the sample θ(T)≡ the CD-signal [theta]222 nm, in deg cm^2 dmol^-1, as a function of T θM(T)≡ the CD-signal for 100% free (monomeric) peptide as a function of T θT(T) ≡ the CD-signal for 100% associated (trimeric) peptide as a function of T Tt ≡ the transition temperature, where 50% of the total peptide concentration is associated ΔHt ≡ the enthalpy difference, in kJ per mole peptide, between mono- and trimeric states ΔCp ≡ the heat capacity difference, in J mol^-1 K^-1, between mono- and trimeric states R ≡ the ideal (universal) gas constant ≡ 8.31 J mol^-1 K^-1
The global CD signal was somewhat lower than expected, which could be due to an instrumental deviation, an error in the concentration determination, a lower purity, or a lower than expected alpha-helical content. Nevertheless, the main goal of this experiment was to examine the effect of the glutamine-to-isoleucine mutant on the stability of the complex. […] The estimated transition temperature was around 97 degrees Celsius, although the latter was difficult to determine because of incompleteness of the transition.
All ten peptides were analyzed by thermal CD scanning as in Examples 3 and 4. Fitting of the thermal denaturation curves, as described in Example 3, gave the corresponding transition temperatures shown in Figure 9. […]

Q: For `CC[C@H](C)[C@H](NC(=O)[C@H](C)NC(=O)[C@H](C)NC(=O)[C@H](CCC(N)=O)NC(=O)[C@H](CCC(N)=O)NC(=O)[C@H](CCCCN)NC(=O)[C@H](CCC(N)=O)NC(=O)[C@@H](NC(=O)[C@H](CCC(=O)O)NC(=O)[C@H](CCC(=O)O)NC(=O)[C@@H](NC(=O)[C@H](CO)NC(=O)[C@H](CCSC)NC(C)=O)[C@@H](C)CC)[C@@H](C)CC)C(=O)N[C@@H](CCC(N)=O)C(=O)N[C@@H](CCCCN)C(=O)N[C@@H](CCC(N)=O)C(=O)N[C@@H](C)C(=O)N[C@@H](C)C(=O)N[C@@H](C)C(=O)N[C@H](C(=O)N[C@@H](CCC(N)=O)C(=O)N[C@@H](CCCCN)C(=O)N[C@@H](CCC(N)=O)C(=O)N[C@H](C(=O)N[C@@H](Cc1ccc(O)cc1)C(=O)N[C@@H](CCCNC(=N)N)C(=O)N[C@@H](CCSC)C(=O)N[C@H](C(=O)N1CCC[C@H]1C(N)=O)[C@@H](C)O)[C@@H](C)CC)[C@@H](C)CC` [3aA] (Ac-MSIEEIQKQQAAIQKQAAAIQKQIYRMTP-NH2), which “effect of core substitution on stability (transition temperature) compared to the reference peptide comprising isoleucine at positions 3a and 3d” value is on record?
A: Its value is “disruptive”.

Q: For `CC[C@H](C)[C@H](NC(=O)[C@H](C)NC(=O)[C@H](C)NC(=O)[C@H](CCC(N)=O)NC(=O)[C@H](CCC(N)=O)NC(=O)[C@H](CCCCN)NC(=O)[C@H](CCC(N)=O)NC(=O)[C@@H](NC(=O)[C@H](CCC(=O)O)NC(=O)[C@H](CCC(=O)O)NC(=O)[C@@H](NC(=O)[C@H](CO)NC(=O)[C@H](CCSC)NC(C)=O)[C@@H](C)CC)[C@@H](C)CC)C(=O)N[C@@H](CCC(N)=O)C(=O)N[C@@H](CCCCN)C(=O)N[C@@H](CCC(N)=O)C(=O)N[C@@H](CC(C)C)C(=O)N[C@@H](C)C(=O)N[C@@H](C)C(=O)N[C@H](C(=O)N[C@@H](CCC(N)=O)C(=O)N[C@@H](CCCCN)C(=O)N[C@@H](CCC(N)=O)C(=O)N[C@H](C(=O)N[C@@H](Cc1ccc(O)cc1)C(=O)N[C@@H](CCCNC(=N)N)C(=O)N[C@@H](CCSC)C(=O)N[C@H](C(=O)N1CCC[C@H]1C(N)=O)[C@@H](C)O)[C@@H](C)CC)[C@@H](C)CC` [3aL] (Ac-MSIEEIQKQQAAIQKQLAAIQKQIYRMTP-NH2), which “effect of core substitution on stability (transition temperature) compared to the reference peptide comprising isoleucine at positions 3a and 3d” value is on record?
A: The value was “slightly stabilizing effect”.

Q: For `CC[C@H](C)[C@H](NC(=O)[C@H](C)NC(=O)[C@H](C)NC(=O)[C@H](CCC(N)=O)NC(=O)[C@H](CCC(N)=O)NC(=O)[C@H](CCCCN)NC(=O)[C@H](CCC(N)=O)NC(=O)[C@@H](NC(=O)[C@H](CCC(=O)O)NC(=O)[C@H](CCC(=O)O)NC(=O)[C@@H](NC(=O)[C@H](CO)NC(=O)[C@H](CCSC)NC(C)=O)[C@@H](C)CC)[C@@H](C)CC)C(=O)N[C@@H](CCC(N)=O)C(=O)N[C@@H](CCCCN)C(=O)N[C@@H](CCC(N)=O)C(=O)N[C@@H](CCC(N)=O)C(=O)N[C@@H](C)C(=O)N[C@@H](C)C(=O)N[C@H](C(=O)N[C@@H](CCC(N)=O)C(=O)N[C@@H](CCCCN)C(=O)N[C@@H](CCC(N)=O)C(=O)N[C@H](C(=O)N[C@@H](Cc1ccc(O)cc1)C(=O)N[C@@H](CCCNC(=N)N)C(=O)N[C@@H](CCSC)C(=O)N[C@H](C(=O)N1CCC[C@H]1C(N)=O)[C@@H](C)O)[C@@H](C)CC)[C@@H](C)CC` [3aQ] (Ac-MSIEEIQKQQAAIQKQQAAIQKQIYRMTP-NH2), which “effect of core substitution on stability (transition temperature) compared to the reference peptide comprising isoleucine at positions 3a and 3d” value is on record?
A: The value was “relatively strong”.

Q: For `CC[C@H](C)[C@H](NC(=O)[C@H](C)NC(=O)[C@H](C)NC(=O)[C@H](CCC(N)=O)NC(=O)[C@H](CCC(N)=O)NC(=O)[C@H](CCCCN)NC(=O)[C@H](CCC(N)=O)NC(=O)[C@@H](NC(=O)[C@H](CCC(=O)O)NC(=O)[C@H](CCC(=O)O)NC(=O)[C@@H](NC(=O)[C@H](CO)NC(=O)[C@H](CCSC)NC(C)=O)[C@@H](C)CC)[C@@H](C)CC)C(=O)N[C@@H](CCC(N)=O)C(=O)N[C@@H](CCCCN)C(=O)N[C@@H](CCC(N)=O)C(=O)N[C@@H](CO)C(=O)N[C@@H](C)C(=O)N[C@@H](C)C(=O)N[C@H](C(=O)N[C@@H](CCC(N)=O)C(=O)N[C@@H](CCCCN)C(=O)N[C@@H](CCC(N)=O)C(=O)N[C@H](C(=O)N[C@@H](Cc1ccc(O)cc1)C(=O)N[C@@H](CCCNC(=N)N)C(=O)N[C@@H](CCSC)C(=O)N[C@H](C(=O)N1CCC[C@H]1C(N)=O)[C@@H](C)O)[C@@H](C)CC)[C@@H](C)CC` [3aS] (Ac-MSIEEIQKQQAAIQKQSAAIQKQIYRMTP-NH2), which “effect of core substitution on stability (transition temperature) compared to the reference peptide comprising isoleucine at positions 3a and 3d” value is on record?
A: Its value is “disruptive”.

Q: With `CC[C@H](C)[C@H](NC(=O)[C@H](C)NC(=O)[C@H](C)NC(=O)[C@H](CCC(N)=O)NC(=O)[C@H](CCC(N)=O)NC(=O)[C@H](CCCCN)NC(=O)[C@H](CCC(N)=O)NC(=O)[C@@H](NC(=O)[C@H](CCC(=O)O)NC(=O)[C@H](CCC(=O)O)NC(=O)[C@@H](NC(=O)[C@H](CO)NC(=O)[C@H](CCSC)NC(C)=O)[C@@H](C)CC)[C@@H](C)CC)C(=O)N[C@@H](CCC(N)=O)C(=O)N[C@@H](CCCCN)C(=O)N[C@@H](CCC(N)=O)C(=O)N[C@H](C(=O)N[C@@H](C)C(=O)N[C@@H](C)C(=O)N[C@H](C(=O)N[C@@H](CCC(N)=O)C(=O)N[C@@H](CCCCN)C(=O)N[C@@H](CCC(N)=O)C(=O)N[C@H](C(=O)N[C@@H](Cc1ccc(O)cc1)C(=O)N[C@@H](CCCNC(=N)N)C(=O)N[C@@H](CCSC)C(=O)N[C@H](C(=O)N1CCC[C@H]1C(N)=O)[C@@H](C)O)[C@@H](C)CC)[C@@H](C)CC)C(C)C` [3aV] (Ac-MSIEEIQKQQAAIQKQVAAIQKQIYRMTP-NH2) as the compound, how does the “effect of core substitution on stability (transition temperature) compared to the reference peptide comprising isoleucine at positions 3a and 3d” value read?
A: The value was “moderately”.

Q: For `CC[C@H](C)[C@H](NC(=O)[C@H](C)NC(=O)[C@H](C)NC(=O)[C@H](CCC(N)=O)NC(=O)[C@H](CCC(N)=O)NC(=O)[C@H](CCCCN)NC(=O)[C@H](CCC(N)=O)NC(=O)[C@@H](NC(=O)[C@H](CCC(=O)O)NC(=O)[C@H](CCC(=O)O)NC(=O)[C@@H](NC(=O)[C@H](CO)NC(=O)[C@H](CCSC)NC(C)=O)[C@@H](C)CC)[C@@H](C)CC)C(=O)N[C@@H](CCC(N)=O)C(=O)N[C@@H](CCCCN)C(=O)N[C@@H](CCC(N)=O)C(=O)N[C@H](C(=O)N[C@@H](C)C(=O)N[C@@H](C)C(=O)N[C@@H](C)C(=O)N[C@@H](CCC(N)=O)C(=O)N[C@@H](CCCCN)C(=O)N[C@@H](CCC(N)=O)C(=O)N[C@H](C(=O)N[C@@H](Cc1ccc(O)cc1)C(=O)N[C@@H](CCCNC(=N)N)C(=O)N[C@@H](CCSC)C(=O)N[C@H](C(=O)N1CCC[C@H]1C(N)=O)[C@@H](C)O)[C@@H](C)CC)[C@@H](C)CC` [3dA] (Ac-MSIEEIQKQQAAIQKQIAAAQKQIYRMTP-NH2), which “effect of core substitution on stability (transition temperature) compared to the reference peptide comprising isoleucine at positions 3a and 3d” value is on record?
A: The value was “relatively strong”.

Q: Which “effect of core substitution on stability (transition temperature) compared to the reference peptide comprising isoleucine at positions 3a and 3d” value does the source give for `CC[C@H](C)[C@H](NC(=O)[C@H](C)NC(=O)[C@H](C)NC(=O)[C@H](CCC(N)=O)NC(=O)[C@H](CCC(N)=O)NC(=O)[C@H](CCCCN)NC(=O)[C@H](CCC(N)=O)NC(=O)[C@@H](NC(=O)[C@H](CCC(=O)O)NC(=O)[C@H](CCC(=O)O)NC(=O)[C@@H](NC(=O)[C@H](CO)NC(=O)[C@H](CCSC)NC(C)=O)[C@@H](C)CC)[C@@H](C)CC)C(=O)N[C@@H](CCC(N)=O)C(=O)N[C@@H](CCCCN)C(=O)N[C@@H](CCC(N)=O)C(=O)N[C@H](C(=O)N[C@@H](C)C(=O)N[C@@H](C)C(=O)N[C@@H](CC(C)C)C(=O)N[C@@H](CCC(N)=O)C(=O)N[C@@H](CCCCN)C(=O)N[C@@H](CCC(N)=O)C(=O)N[C@H](C(=O)N[C@@H](Cc1ccc(O)cc1)C(=O)N[C@@H](CCCNC(=N)N)C(=O)N[C@@H](CCSC)C(=O)N[C@H](C(=O)N1CCC[C@H]1C(N)=O)[C@@H](C)O)[C@@H](C)CC)[C@@H](C)CC` [3dL] (Ac-MSIEEIQKQQAAIQKQIAALQKQIYRMTP-NH2) here?
A: The value was “slightly stabilizing effect”.
